Reference: patent US10745383B2, “1,3,5-triazine derivative and method of using same” (CHIA TAI TIANQING PHARMACEUTICAL GROUP CO., LTD., priority 2015, dated 2020)
Each block holds one compound with its values, some of them ahead of it.

Tests used:
IDH2 (R172K, 40-end) = IDH2 (R172K, 40-end) (Homo sapiens (Human), UniProt P48735, R172K); assay: IDH2 inhibitory activity determined by decrease of NADPH (diaphorase/resazurin fluorescence); assay type: biochemical; conditions: 120 min pre-incubation with enzyme and NADPH, 120 min reaction with α-KG
Sequence of IDH2 (R172K, 40-end) (P48735 40-452 R172K): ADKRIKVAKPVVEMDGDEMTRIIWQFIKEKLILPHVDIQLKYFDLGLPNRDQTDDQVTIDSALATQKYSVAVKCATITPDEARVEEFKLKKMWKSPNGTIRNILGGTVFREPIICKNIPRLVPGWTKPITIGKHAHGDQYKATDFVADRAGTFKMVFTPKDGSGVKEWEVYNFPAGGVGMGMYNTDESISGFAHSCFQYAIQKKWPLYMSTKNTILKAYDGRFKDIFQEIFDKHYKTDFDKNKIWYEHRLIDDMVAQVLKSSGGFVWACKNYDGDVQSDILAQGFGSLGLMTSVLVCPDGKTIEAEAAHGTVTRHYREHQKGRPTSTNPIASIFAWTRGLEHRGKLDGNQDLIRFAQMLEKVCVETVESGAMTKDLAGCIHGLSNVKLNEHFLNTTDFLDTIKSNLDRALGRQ
Method: The inhibitory activity of the compounds of the present application against IDH2 (R172K, 40-end) was determined by using the following method, which was expressed as IC50 values, i.e., the concentrations of the compounds required to achieve 50% inhibition of IDH2 activity.
The inhibitory activity of a compound against IDH2 (R172K, 40-end) was determined by the decrease of a helper factor NADPH. The test compound was pre-incubated with an enzyme and NADPH, and then a reaction was initiated by the addition of α-KG, and performed for 120 minutes under a linear condition. Then, the reaction was terminated by the addition of diaphorase (lipoamide dehydrogenase) and the corresponding substrate resazurin. Diaphorase terminated the IDH2m reaction by decreasing the available helper factor NADPH, which oxidized NADPH to NADP, and reduced resazurin to highly fluorescent resorufin. The amount of remaining helper factor NADPH after a specific reaction time was quantified via an easily detectable fluorophore.
Specifically, 2.5 μl of a 3-fold gradient diluted test compound was added to a 384-well plate, and then 5 μl of a reaction buffer (20 mM Tris-HCl, PH7.5; 150 mM NaCl; 10 mM MgCl2; 10 mM MnCl2; 0.4 mg/ml BSA and 2 mM DTT) containing 80 nM IDH2 (R172K, 40-end) and 40 μM NADPH was added. Then, the resulting test mixture was incubated for 120 minutes at a temperature of 23° C., and then 2.5 μl of the reaction buffer containing 4 mM α-KG was added to initiate the reaction. After incubating for 120 minutes at room temperature, 5 μl of a termination mixture (0.4 U/ml diaphorase and 40 μM resazurin) prepared with the reaction buffer was added to convert resazurin to resorufin to determine the remaining NADPH. After incubating for 10 minutes at a temperature of 23° C., a fluorescence value was determined through Flexstation 3 at Ex535/Em595.

[1] = Pharmacokinetic parameters in rats after a single intragastric dose; assay type: in vivo; conditions: for AUC(0-inf) / Cmax / Tmax / half-life: rat, po, male rats, intragastric, single dose 5 mg/kg, plasma
Method: Healthy male adult rats (7-9 weeks old) were used in this study. Each group of animals (3 male rats) was intragastrically administered once at a single dose of 5 mg/kg. The animals in the intragastric administration group were fasted overnight before this study. The fasting time period was from 10 hours before administration to 4 hours after administration.
Blood samples were taken at 0.25, 0.5, 1, 2, 4, 6, 8 and 24 h after administration. The animals were anesthetized with isoflurane using an animal anesthesia machine, and then 0.3 mL whole blood samples were taken from the fundus venous plexus. The blood samples were placed in heparin anticoagulant tubes, and centrifuged for 5 min at 4° C. and 4000 rpm. The resulting plasmas were transferred to centrifuge tubes, and stored at −80° C. until analysis.
Verified LC-MS/MS method was used to analyze the plasma samples. Plasma concentration-time data of animals were analyzed using WinNonlin (Professional Edition, version 6.3; Pharsight Company) software. The non-compartmental model was introduced for concentration analysis. The pharmacokinetic parameters of the compounds were calculated.

[2] = rats, same dose (5 mg/kg intragastric)

SMILES: CC(C)(C)ONc1nc(Nc2ccnc(C(F)(F)F)c2)nc(-c2ccccc2)n1 [Example 10, 4-(tert-butoxyamino)-6-phenyl-N-(2-(trifluoromethyl)pyridin-4-yl)-1,3,5-triazin-2-amine]
- IC50 (IDH2 (R172K, 40-end)): 51.4 nM

SMILES: CC(C)(O)CNc1nc(Nc2ccnc(C(F)(F)F)c2)nc(-c2cccc(C(F)(F)F)n2)n1 [AG-221, reference compound]
- AUC(0-inf) [1]: 5380 ng·h/mL
- Cmax [1]: 479 ng/mL
- Tmax [1]: 4 h
- half-life [1]: 224 min

SMILES: FC(F)(F)c1cc(Nc2nc(NOCC3CC3)nc(-c3cccc(C(F)(F)F)n3)n2)ccn1 [Example 4, 4-((cyclopropylmethoxy)amino)-6-(6-(trifluoromethyl)pyridin-2-yl)-N-(2-(trifluoromethyl)pyridin-4-yl)-1,3,5-triazin-2-amine]
- IC50 (IDH2 (R172K, 40-end)): 38.2 nM

SMILES: CCONc1nc(Nc2ccnc(C(F)(F)F)c2)nc(-c2cccc(C(F)(F)F)n2)n1 [Example 1, 4-(ethoxyamino)-6-(6-(trifluoromethyl)pyridin-2-yl)-N-(2-(trifluoromethyl)pyridin-4-yl)-1,3,5-triazin-2-amine]
- IC50 (IDH2 (R172K, 40-end)): 22.4 nM

SMILES: CC(C)(C)ONc1nc(Nc2ccnc(C(F)(F)F)c2)nc(-c2cccc(C(F)(F)F)n2)n1 [Example 3, 4-(tert-butoxyamino)-6-(6-(trifluoromethyl)pyridin-2-yl)-N-(2-(trifluoromethyl)pyridin-4-yl)-1,3,5-triazin-2-amine]
- IC50 (IDH2 (R172K, 40-end)): 31.7 nM
- AUC(0-inf) [1]: 10800 ng·h/mL
- Cmax [1]: 589 ng/mL
- Tmax [1]: 5 h
- half-life [1]: 720 min
- half-life compared with AG-221 [1, 2]: longer half-life
- metabolism in vivo compared with AG-221 [1, 2]: better metabolism in vivo
- plasma concentration compared with AG-221 [1, 2]: higher plasma concentration

More lines, now with the values ahead:

- IC50 (IDH2 (R172K, 40-end)): 239 nM
SMILES: FC(F)(F)c1cc(Nc2nc(NOCc3ccccc3)nc(-c3cccc(C(F)(F)F)n3)n2)ccn1 [Example 8, 4-((benzyloxy)amino)-6-(6-(trifluoromethyl)pyridin-2-yl)-N-(2-(trifluoromethyl)pyridin-4-yl)-1,3,5-triazin-2-amine]

- IC50 (IDH2 (R172K, 40-end)): 154 nM
SMILES: CC(C)(CO)ONc1nc(Nc2ccnc(C(F)(F)F)c2)nc(-c2cccc(C(F)(F)F)n2)n1 [Example 7, 2-methyl-2-(((4-(6-(trifluoromethyl)pyridin-2-yl)-6-((2-(trifluoromethyl)pyridin-4-yl)amino)-1,3,5-triazin-2-yl)amino)oxy)propan-1-ol]

- IC50 (IDH2 (R172K, 40-end)): 46.9 nM
SMILES: CC(C)(O)CONc1nc(Nc2ccnc(C(F)(F)F)c2)nc(-c2cccc(C(F)(F)F)n2)n1 [Example 6, 2-methyl-1-(((4-(6-(trifluoromethyl)pyridin-2-yl)-6-((2-(trifluoromethyl)pyridin-4-yl)amino)-1,3,5-triazin-2-yl)amino)oxy)propan-2-ol]
